Results: US12378277B2, “SGLTS/DPP4 inhibitor and application thereof” (DONGBAO PURPLE STAR (HANGZHOU) BIOPHARMACEUTICAL CO., LTD., priority 2019, dated 2025)
Marks after values point to notes of the source that are not given here.

Assays:
Human-SGLT2 = Human-SGLT2 (Homo sapiens (Human), UniProt P31639); test: SGLT2 glucose transport test; type: cell-based; conditions: cells stably expressing Human-SGLT2; [14C]-labeled methyl α-D-glucopyranoside uptake, 37° C., 2 hours
Experimental: 6) The data was calculated by GraphPad Prism 5.0 software: log(inhibitor) vs. response—Variable slope to obtain the IC50 value of the test compound. The experimental results were shown in Table 3. • Biological activity experiment 2: SGLT2 glucose transport test 1. Experimental Purpose:
The effect of the compound on the glucose transport activity of the SGLT2 transporter was detected through measuring the amount of [^14C]-labeled glucose entering the cells with high expression of Human-SGLT2.
The cells stably expressing Human-SGLT2 used in the experiment were constructed by Shanghai WuXi AppTec. The SGLT2 cells were plated on a 96-well cell culture plate (Greiner) and cultured overnight at 5% CO2 at 37° C.
2.2. SGLT2 Glucose Transport Test
1) Experimental buffer: 10 mM 4-hydroxyethylpiperazine ethanesulfonic acid (HEPES), 1.2 mM magnesium chloride (MgCl2), 4.7 mM potassium chloride (KCl), 2.2 mM calcium chloride (CaCl2)) and 120 mM sodium chloride (NaCl).
2) Termination buffer: 10 mM 4-hydroxyethylpiperazine ethanesulfonic acid (HEPES), 1.2 mM magnesium chloride (MgCl2), 4.7 mM potassium chloride (KCl), 2.2 mM calcium chloride (CaCl2), 120 mM sodium chloride (NaCl) and 1 μM LX4211.
3) The compound was diluted with 100% dimethyl sulfoxide (DMSO) with a starting concentration of 10 μM and 8 points of 5-fold serial dilution.
4) 6 μM [^14C]-labeled methyl α-D-glucopyranoside was prepared with experimental buffer.
5) The cells were treated with 49 μL of experimental buffer, 1 μL of gradient diluted compound, and 50 μL of 6 μM [^14C]isotope-labeled sugar solution at 37° C. for 2 hours.
6) The liquid in the well was aspirated and the cells were rinsed 3 times with termination buffer.
7) The cells were lysed with 50 μL of 10% sodium hydroxide solution, the cell lysate was aspirated into the scintillation tube, and 2 mL of scintillation fluid was added.
8) An isotope detector (Tricarb) was used to read.
9) The data was calculated by GraphPad Prism 5.0 software: log(inhibitor) vs. response—Variable slope to obtain the IC50 value of the test compound. The experimental results were shown in Table 3. • Biological activity experiment 3: rhDPP4 inhibitor screening experiment 1.

Human-SGLT1 = Human-SGLT1 (Homo sapiens (Human), UniProt P13866); test: SGLT1 glucose transport test; type: cell-based; conditions: cells stably expressing Human-SGLT1; [14C]-labeled methyl α-D-glucopyranoside uptake, 37° C., 2 hours
Experimental: • Biological activity experiment 1: SGLT1 glucose transport test 1. Experimental Purpose:
The effect of the compound on the glucose transport activity of the SGLT1 transporter was detected through measuring the amount of [^14C]-labeled glucose entering the cells with high expression of Human-SGLT1.
The cells stably expressing Human-SGLT1 used in the experiment were constructed by Shanghai WuXi AppTec. The SGLT1 cells were plated on a Cytostar-T (PerkinElmer) 96-well cell culture plate, and cultured overnight at 5% CO2 at 37° C.
2.2. SGLT1 Glucose Transport Test
1) Experimental buffer: 10 mM 4-hydroxyethylpiperazine ethanesulfonic acid (HEPES), 1.2 mM magnesium chloride (MgCl2), 4.7 mM potassium chloride (KCl), 2.2 mM calcium chloride (CaCl2) and 120 mM sodium chloride (NaCl).
2) The compound was diluted with 100% dimethyl sulfoxide (DMSO) with 1 mM as the starting concentration and 8 points of 5-fold serial dilutions.
3) 3 μM [^14C]-labeled methyl α-D-glucopyranoside was prepared with experimental buffer.
4) The cells were treated with 49 μL of experimental buffer, 1 μL of the compound which was gradient diluted, and 50 μL of 3 μM [^14C] isotope-labeled sugar solution at 37° C. for 2 hours.
5) The isotope detector (Micro beta Reader) was used to read.
6) The data was calculated by GraphPad Prism 5.0 software: log(inhibitor) vs. response—Variable slope to obtain the IC50 value of the test compound. The experimental results were shown in Table 3. • Biological activity experiment 2: SGLT2 glucose transport test 1.

[1] = target: recombinant human dipeptidyl peptidase 4 (rhDPP4) (Homo sapiens (Human), UniProt P27487); test: rhDPP4 inhibitor screening experiment; type: biochemical; conditions: Gly-Pro-aminoluciferin substrate, luminescence, room temperature 1 hour
Experimental: 9) The data was calculated by GraphPad Prism 5.0 software: log(inhibitor) vs. response—Variable slope to obtain the IC50 value of the test compound. The experimental results were shown in Table 3. • Biological activity experiment 3: rhDPP4 inhibitor screening experiment 1. Experimental Purpose:
The inhibitory activity of the compounds on recombinant human dipeptidyl peptidase 4 (rhDPP4) was evaluated by measuring the median inhibitory concentration (IC50) value of the compounds. In this experiment, rhDPP4 was used to catalyze a substrate to produce luciferin, and reacted with luciferase to produce light signals, wherein the substrate is the luminescent precursor glycine-proline-[…] (Gly-Pro-aminoluciferin). The intensity of the light signal is directly proportional to the enzyme activity.
1) 250 nL of gradient diluted compound (4 times dilution, 10 detection concentrations) was transferred to a 384-well plate (PerkingElmer-6007299) using a non-contact nano-upgraded acoustic pipetting system (ECHO). The concentration of dimethylsulfoxide (DMSO) concentration was 0.5% in the final reaction system. Blank control wells (containing DMSO, substrate and 10 mM of tris(hydroxymethyl)aminomethane hydrochlorid (Tris-HCl)) and positive control wells (containing DMSO, substrate and rhDPP4) were set.
2) The pre-packed frozen buffer containing luciferase was taken out and restored to room temperature, and then added with substrate to prepare a working solution with a substrate concentration of 20 μM. The rhDPP4 was prepared as a 0.2 ng/mL working solution with 10 mM Tris-HCl (pH8.0) aqueous solution.
3) 25 μL of working solution containing 20 μM substrate and 25 μL of working solution containing 0.2 ng/mL rhDPP4 were added to the 384-well plate with the compound added already. The plate was centrifuged at 1000 rpm for 30 s. The plate was sealed with aluminum foil sealing film and incubated at room temperature for 1 hour.
4) The light signal intensity was detected with a multi-function enzyme label detector EnVision. […]

SD rat = test: Rat oral glucose tolerance test (OGTT) in vivo; conditions: 10 mg/kg single gavage
Experimental: 1. Animal: [table] 2. Experiment Grouping: [table] Experiment Process: 1. Animal Adaptation and Preparation: The experimental animals needed to be acclimatized in the animal room for 1 week after arriving at the facility. 2. Fasting and Administration The animals were fasted for 18 h in the metabolic cage, and drugs or solvents (2 mL/kg) were given according to the above table, and then 50% glucose solution (2 g/kg, 4 mL/kg) was administrated immediately. 3. Urine and Blood Sugar Test Two hours after the animals were given sugar, they resumed eating. The time points of 0 min, 15 min, 30 min, 45 min, 60 min and 120 min were collected for blood glucose determination; urine during 0-24 h was used for urine sugar (mg/200 g) and urine volume test respectively. 4. Data Analysis: All values will be expressed as average values. Statistical analysis was evaluated using Graphpad Prism 6 one-way analysis of variance Tukey's multiple comparison test. P value of less than 0.05 was considered of statistically significant.

Sequence of recombinant human dipeptidyl peptidase 4 (rhDPP4) (P27487 whole entry): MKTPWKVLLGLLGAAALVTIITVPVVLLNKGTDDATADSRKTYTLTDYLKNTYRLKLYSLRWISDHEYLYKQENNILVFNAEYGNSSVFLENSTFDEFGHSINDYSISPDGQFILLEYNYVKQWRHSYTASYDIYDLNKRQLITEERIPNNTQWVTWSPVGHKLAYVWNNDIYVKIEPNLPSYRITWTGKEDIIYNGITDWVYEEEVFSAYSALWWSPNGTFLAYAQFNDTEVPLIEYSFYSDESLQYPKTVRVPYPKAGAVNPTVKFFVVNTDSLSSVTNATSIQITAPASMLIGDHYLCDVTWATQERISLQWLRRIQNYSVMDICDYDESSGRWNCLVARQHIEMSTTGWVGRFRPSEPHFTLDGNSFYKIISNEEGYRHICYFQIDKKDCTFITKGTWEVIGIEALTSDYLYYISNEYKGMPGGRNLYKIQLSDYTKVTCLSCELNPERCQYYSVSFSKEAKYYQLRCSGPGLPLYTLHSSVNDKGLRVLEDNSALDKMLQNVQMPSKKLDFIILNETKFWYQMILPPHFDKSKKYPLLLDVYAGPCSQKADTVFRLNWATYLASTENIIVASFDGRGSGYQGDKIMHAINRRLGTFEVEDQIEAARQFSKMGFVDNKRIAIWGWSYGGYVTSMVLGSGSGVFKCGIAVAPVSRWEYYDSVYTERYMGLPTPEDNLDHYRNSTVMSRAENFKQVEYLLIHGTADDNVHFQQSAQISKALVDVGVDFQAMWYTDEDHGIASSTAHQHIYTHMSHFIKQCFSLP
Sequence of Human-SGLT2 (P31639 whole entry): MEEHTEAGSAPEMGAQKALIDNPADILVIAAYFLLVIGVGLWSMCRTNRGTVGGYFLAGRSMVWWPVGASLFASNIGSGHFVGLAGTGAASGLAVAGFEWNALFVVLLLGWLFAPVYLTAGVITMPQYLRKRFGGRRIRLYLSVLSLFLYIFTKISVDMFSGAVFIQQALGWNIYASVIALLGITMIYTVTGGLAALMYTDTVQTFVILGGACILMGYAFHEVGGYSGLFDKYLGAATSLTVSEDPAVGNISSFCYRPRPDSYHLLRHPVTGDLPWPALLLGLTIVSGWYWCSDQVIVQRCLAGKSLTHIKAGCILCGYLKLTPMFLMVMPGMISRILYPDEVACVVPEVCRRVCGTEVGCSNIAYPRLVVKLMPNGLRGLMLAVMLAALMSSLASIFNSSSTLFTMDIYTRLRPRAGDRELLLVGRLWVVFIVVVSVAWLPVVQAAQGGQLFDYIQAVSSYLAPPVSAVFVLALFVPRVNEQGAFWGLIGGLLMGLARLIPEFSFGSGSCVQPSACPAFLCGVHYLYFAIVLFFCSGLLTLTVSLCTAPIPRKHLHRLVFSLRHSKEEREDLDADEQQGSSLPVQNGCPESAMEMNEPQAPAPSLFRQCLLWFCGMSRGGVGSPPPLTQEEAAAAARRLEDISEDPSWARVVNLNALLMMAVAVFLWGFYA
Sequence of Human-SGLT1 (P13866 whole entry): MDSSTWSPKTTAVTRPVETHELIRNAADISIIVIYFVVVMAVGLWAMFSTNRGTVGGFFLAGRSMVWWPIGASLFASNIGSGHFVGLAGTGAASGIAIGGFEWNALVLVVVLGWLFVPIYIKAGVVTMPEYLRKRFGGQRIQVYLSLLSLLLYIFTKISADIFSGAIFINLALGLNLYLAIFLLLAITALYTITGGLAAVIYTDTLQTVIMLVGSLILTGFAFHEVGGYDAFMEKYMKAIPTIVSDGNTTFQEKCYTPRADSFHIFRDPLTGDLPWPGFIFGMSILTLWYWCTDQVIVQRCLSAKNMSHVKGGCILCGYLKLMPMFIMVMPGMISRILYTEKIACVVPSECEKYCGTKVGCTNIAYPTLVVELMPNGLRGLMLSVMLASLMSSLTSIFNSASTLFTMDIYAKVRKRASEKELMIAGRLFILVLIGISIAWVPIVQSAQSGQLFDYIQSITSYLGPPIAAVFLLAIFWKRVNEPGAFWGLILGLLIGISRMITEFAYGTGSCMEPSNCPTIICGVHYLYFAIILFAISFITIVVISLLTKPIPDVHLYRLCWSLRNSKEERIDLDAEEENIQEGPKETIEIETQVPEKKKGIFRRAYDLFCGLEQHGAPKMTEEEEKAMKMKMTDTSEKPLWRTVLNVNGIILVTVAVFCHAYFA

Row | IC50 (Human-SGLT2) [nM] | IC50 (Human-SGLT1) [nM] | IC50 [1] [nM] | SMILES | OGTT glucose level AUC0-2 hr (SD rat; then 50% glucose solution 2 g/kg, solvent control group 1079) [mmol/L/min] | Urine sugar level (SD rat; urine during 0-24 h, solvent control group 0.4) | Urine volume (SD rat; urine during 0-24 h, solvent control group 16.8)
1 | 6.14 | 11.2 | 317 | CS[C@H]1O[C@@H](c2ccc(C(C)C)c(Cc3ccc(O[C@@H]4CCN([C@H]5CO[C@H](c6cc(F)ccc6F)[C@@H](N)C5)C4)cc3)c2)[C@H](O)[C@@H](O)[C@@H]1O [WXD012] |  |  | 
2 | 10.3 | 44.9 |  | CCc1ccc([C@@H]2O[C@H](SC)[C@@H](O)[C@H](O)[C@H]2O)cc1Cc1ccc(O[C@@H]2CCN([C@H]3CO[C@H](c4cc(F)ccc4F)[C@@H](N)C3)C2)c(C)c1 [WXD011] |  |  | 
3 | 21.2 | 144 | 164 | CCc1ccc([C@@H]2O[C@H](SC)[C@@H](O)[C@H](O)[C@H]2O)cc1Cc1ccc(O[C@@H]2CCN([C@H]3CO[C@H](c4cc(F)ccc4F)[C@@H](N)C3)C2)c(C)c1 [WXD010] |  |  | 
4 | 1.44 | 3.37 | 511 | CCc1ccc([C@@H]2O[C@H](SC)[C@@H](O)[C@H](O)[C@H]2O)cc1Cc1ccc(OC2CCN(C3CO[C@H](c4cc(F)ccc4F)[C@@H](N)C3)CC2)cc1 (some centres unmarked) [WXD007] |  |  | 
5 |  |  |  | CCOc1ccc(Cc2cc([C@@H]3O[C@H](SC)[C@@H](O)[C@H](O)[C@H]3O)ccc2Cl)cc1 [Soagliflozin, Sotagliflozin] | 917 | 2913**** mg/200 g BW | 32.2**** mL/200 g BW
